Measurements taken from patent publication US9988381B2, “Five-member-heterocycle fused pyridine compounds, method of producing the same, and use thereof” (SHANGHAI INSTITUTE OF MATERIA MEDICA, CHINESE ACADEMY OF …, priority 2013, dated 2018).
Read-outs that look alike come from different tables or passages of the source.

Legend:
[1] = biological target: T1, c-Met kinase domain recombinant protein (Homo sapiens, UniProt P08581); test: biochemical; conditions: for inhibition at 0.1 µM: read-out: Average inhibition rate at 0.1 μM (%); for inhibition at 1 µM: read-out: Average inhibition rate at 1 μM (%)
T1 construct: 50 μL diluted solution of c-Met kinase domain recombinant protein in reaction buffer was added to initiate the reaction
T1 sequence (P08581 1078-1345 limits assumed): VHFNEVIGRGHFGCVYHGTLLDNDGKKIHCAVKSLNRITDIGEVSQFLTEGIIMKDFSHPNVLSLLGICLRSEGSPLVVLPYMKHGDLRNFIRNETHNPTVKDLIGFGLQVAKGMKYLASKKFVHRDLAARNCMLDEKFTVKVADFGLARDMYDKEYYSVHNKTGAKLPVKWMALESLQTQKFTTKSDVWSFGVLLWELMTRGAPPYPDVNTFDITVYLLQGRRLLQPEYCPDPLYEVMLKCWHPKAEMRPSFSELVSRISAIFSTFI
How it was run: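 ELISA on plates coated with Poly(Glu,Tyr)4:1 (20 μg/mL coating solution). Recombinant c-Met kinase domain reacted with 5 μM ATP in HEPES pH 7.4 with Mg/Mn, vanadate and DTT for 1 hour at 37° C. Phosphotyrosine was detected with PY99 and HRP secondary antibody, read at 490 nm, and IC50 was taken from a four-parameter fit.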

EBC-1 cell = test: Test III: growth inhibition of non-small cell carcinoma EBC-1 cell (SRB); format: cell-based; conditions: Homo sapiens; for inhibition at 0.2 µM: read-out: Cell proliferation inhibition rate at 200 nM (%); for inhibition at 1 µM: read-out: Cell proliferation inhibition rate at 1 μM (%)
Procedure: Assays on the growth inhibition of the compounds against gastric tumor cell MKN45, non-small cell carcinoma EBC-1 cell (both are MET persistent activated cell lines due to MET gene amplification, and are Met dependent tumor cell lines, MKN45 cell was purchased from JCRB, Japan, EBC-1 cell was purchased from ATCC, USA) were detected using sulforhodamine B (SRB) staining. […] After incubation with compound for 72 hours, the incubation was terminated, adherent cells were retained and medium was discarded, 10% (w/v) trichloroacetic acid (100 μL pre well) was added, the cells were fixed at 4° C. for 1 hour, then rinsed with distilled water for 5 times, after dried at room temperature, SRB solution (4 mg/mL, dissolved in 1% glacial acetic acid) was added at 100 μL per well, incubated and stained at room temperature for 15 minutes, then rinsed with 1% glacial acetic acid for 5 times to remove any unbound SRB, dried at room temperature, then 10 mM Tris solution was added at 100 μL per well, the optical density (OD) value at 515 nm was measured using VERSMax microplate reader.
Experiments were conducted in duplicates. IC50 value was calculated by fitting the data for a four parameter fit using inhibition curve, the results are shown below in Table 2.

IC50 [1] [nM]	inhibition at 0.1 µM [1] [%]	inhibition at 1 µM [1] [%]	Compound	inhibition at 0.2 µM (EBC-1 cell; EBC-1, 72 h) [%]	inhibition at 1 µM (EBC-1 cell; EBC-1, 72 h) [%]	inhibition at 0.2 µM (EBC-1 cell; EBC-1, 200 nM, 72 hours) [%]	inhibition at 1 µM (EBC-1 cell; EBC-1, 1 μM, 72 hours) [%]
0.5 ± 0.03	92.4	89.5	Cn1cc(-c2ccc3ncc(S(=O)(=O)n4ncc5ncc(-c6cnn(C7CCNCC7)c6)cc54)n3c2)cn1 [Example 140, 1-{(6-[(1-methyl)-4-pyrazolyl]-imidazo[1,2-a]pyridine)-3-sulfonyl}-6-{[1-(4-piperidinyl)]-4-pyrazolyl}-1-H-pyrazolo[4,3-b]pyridine]	91.4	92		
2.6 ± 0.2	87.4	88.2	Cn1cc(-c2ccc3ncc(S(=O)(=O)n4ncc5ncc(C6=CCN(C7CCCC7)CC6)cc54)n3c2)cn1 [Example 135, 1-{(6-[(1-methyl)-4-pyrazolyl]-imidazo[1,2-a]pyridine)-3-sulfonyl}-6-[(1-cyclopentyl)-4-(1,2,3,6-tetrahydropyridinyl)]-1-H-pyrazolo[4,3-b]pyridine]	89.4	91.4		
1.3 ± 0.1	91.6	89.9	CC(C)N1CC=C(c2cnc3cnn(S(=O)(=O)c4cnc5ccc(-c6cnn(C)c6)cn45)c3c2)CC1 [Example 137, 1-{(6-[(1-methyl)-4-pyrazolyl]-imidazo[1,2-a]pyridine)-3-sulfonyl}-6-[(1-isopropyl)-4-(1,2,3,6-tetrahydropyridinyl)]-1-H-pyrazolo[4,3-b]pyridine]	73	92.4		
2.6 ± 0.4	97.8	100	Cn1cc(-c2cnc3cnn(S(=O)(=O)c4cnc5ccc(-c6cn[nH]c6)cn45)c3c2)cn1 [Example 105, 1-{[6-(4-pyrazolyl)-imidazo[1,2-a]pyridine]-3-sulfonyl}-6-[(1-methyl)-4-pyrazolyl]-1-H-pyrazolo[4,3-b]pyridine]	77.7	91.5		
2.6 ± 0.2	100	100	Cn1cc(-c2ccc3ncc(S(=O)(=O)n4ncc5ncc(NC(=O)c6ccccc6)cc54)n3c2)cn1 [Example 133, 1-{(6-[(1-methyl)-4-pyrazolyl]-imidazo[1,2a]pyridine)-3-sulfonyl}-6-benzamido-1-H-pyrazolo[4,3-b]pyridine]	86.4	87.8		
1.2 ± 0.1	90.2	91.3	Cn1cc(-c2ccc3ncc(S(=O)(=O)n4ncc5ncc(-c6cnn(C7CCN(C8CCCC8)CC7)c6)cc54)n3c2)cn1 [Example 136, 1-{(6-[(1-methyl)-4-pyrazolyl]-imidazo[1,2-a]pyridine)-3-sulfonyl}-6-{{1-[(1-cyclopentyl)-4-piperidinyl]}-4-pyrazolyl}-1-H-pyrazolo[4,3-b]pyridine]	91.4	92.4		
0.4 ± 0.1	90	92.1	Cn1cc(-c2ccc3ncc(S(=O)(=O)n4ncc5ncc(-c6ccc(CN7CCOCC7)cc6)cc54)n3c2)cn1 [Example 143, 1-{(6-[(1-methyl)-4-pyrazolyl]-imidazo[1,2-a]pyridine)-3-sulfonyl}-6-(4-morpholinomethylphenyl)-1-H-pyrazolo[4,3-b]pyridine]	92.3	92.5		
3.2 ± 0.3	98.5	101	CC(C)c1c(-c2cnn(C)c2)cnc2cnn(S(=O)(=O)c3cnc4ccc(-c5cnn(C)c5)cn34)c12 [Example 103, 1-{(6-[(1-methyl)-4-pyrazolyl]-imidazo[1,2-a]pyridine)-3-sulfonyl}-6-[(1-methyl)-4-pyrazolyl]-7-isopropyl-1-H-pyrazolo[4,3-b]pyridine]	80.9	92.7		
9 ± 1	99	101	COc1ccc2ncc(S(=O)(=O)n3ncc4ncc(-c5cnn(C)c5)cc43)n2c1 [Example 121, 1-[(6-methoxy-imidazo[1,2-a]pyridine)-3-sulfonyl]-6-[(1-methyl)-4-pyrazolyl]-1-H-pyrazolo[4,3-b]pyridine]	91.6	92.5		
0.6 ± 0.01	87.7	90.5	CCN1CCC(n2cc(-c3cnc4cnn(S(=O)(=O)c5cnc6ccc(-c7cnn(C)c7)cn56)c4c3)cn2)CC1 [Example 138, 1-{(6-[(1-methyl)-4-pyrazolyl]-imidazo[1,2-a]pyridine)-3-sulfonyl}-6-{{1-[(1-ethyl)-4-piperidinyl]}-4-pyrazolyl}-1-H-pyrazolo[4,3-b]pyridine]	90.9	92.9		
2 ± 0.2	99.4	99.3	CC(C)C(=O)Oc1ccc2ncc(S(=O)(=O)n3ncc4ncc(-c5cnn(C)c5)cc43)n2c1 [Example 128, 1-[(6-isobutyryloxy-imidazo[1,2-a]pyridine)-3-sulfonyl]-6-[(1-methyl)-4-pyrazolyl]-1-H-pyrazolo[4,3-b]pyridine]	80.6	87		
4.7 ± 1	94.4	99.7	COc1ccc2ncc(S(=O)(=O)n3ncc4ncc(-c5ccc(N6CCOCC6)cc5)cc43)n2c1 [Example 124, 1-[(6-methoxy-imidazo[1,2-a]pyridine)-3-sulfonyl]-6-(4-morpholinylphenyl)-1-H-pyrazolo[4,3-b]pyridine]	43.1	92.7		

Compound	IC50 [1] [nM]	inhibition at 0.1 µM [1] [%]	inhibition at 1 µM [1] [%]	inhibition at 0.2 µM (EBC-1 cell; EBC-1, 72 h) [%]	inhibition at 1 µM (EBC-1 cell; EBC-1, 72 h) [%]	inhibition at 0.2 µM (EBC-1 cell; EBC-1, 200 nM, 72 hours) [%]	inhibition at 1 µM (EBC-1 cell; EBC-1, 1 μM, 72 hours) [%]
CCC(=O)Nc1cnc2cnn(S(=O)(=O)c3cnc4ccc(Br)cn34)c2c1 [Example 132, 1-[(6-bromo-imidazo[1,2-a]pyridine)-3-sulfonyl]-6-propionamido-1-H-pyrazolo[4,3-b]pyridine]		92.1	100			48.2	85.4
Cn1cc(-c2ccc3ncc(S(=O)(=O)n4ncc5ncc(C6=CCNCC6)cc54)n3c2)cn1 [Example 139, 1-{(6-[(1-methyl)-4-pyrazolyl]-imidazo[1,2-a]pyridine)-3-sulfonyl}-6-[4-(1,2,3,6-tetrahydropyridinyl)]-1-H-pyrazolo[4,3-b]pyridine]	1 ± 0.1	90.3	88.9	90.7	91.6		
CCOc1cccc(-c2cnc3cnn(S(=O)(=O)c4cnc5ccc([N+](=O)[O-])cn45)c3c2)c1 [Example 113, 1-[(6-nitro-imidazo[1,2-a]pyridine)-3-sulfonyl]-6-(3-ethoxyphenyl)-1-H-pyrazolo[4,3-b]pyridine]		48.6	97.7			7.9	9
Cn1cc(-c2cnc3[nH]cc(S(=O)(=O)n4ncc5cccnc54)c3c2)cn1 [Example 107, 1-{(5-[(1-methyl)-4-pyrazolyl])-1-H-pyrrolo [2,3-b]pyridine-3-sulfonyl}-1-H-pyrazolo[3,4-b]pyridine]		29.1	88.2			18.9	18.1
